PubChem BioAssay (NCI)
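Five concentrations, 48 hours, 96-well plates. TGI is the concentration that stops growth completely.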

What was measured:
Experiment in all cases: growth of human tumour cells (NCI), 48 h
EKVX NSCLC = system: EKVX NSCLC
SK-MEL-28 melanoma = system: SK-MEL-28 melanoma
RPMI-8226 leukemia = system: RPMI-8226 leukemia
HOP-92 NSCLC = system: HOP-92 NSCLC
MDA-MB-435 = system: MDA-MB-435
SW-620 colon = system: SW-620 colon
SNB-19 CNS = system: SNB-19 CNS
IGROV1 ovarian = system: IGROV1 ovarian
SK-OV-3 ovarian = system: SK-OV-3 ovarian
U251 CNS = system: U251 CNS
HOP-62 NSCLC = system: HOP-62 NSCLC
MOLT-4 leukemia = system: MOLT-4 leukemia
HL-60(TB) leukemia = system: HL-60(TB) leukemia
LOX IMVI melanoma = system: LOX IMVI melanoma
CAKI-1 renal = system: CAKI-1 renal
UACC-62 melanoma = system: UACC-62 melanoma
HCT-15 colon = system: HCT-15 colon
HS 578T breast = system: HS 578T breast
BT-549 breast = system: BT-549 breast
786-0 renal = system: 786-0 renal

| Structure (SMILES) | TGI (EKVX NSCLC) [µM] | TGI (SK-MEL-28 melanoma) [µM] | TGI (RPMI-8226 leukemia) [µM] | TGI (HOP-92 NSCLC) [µM] | TGI (MDA-MB-435) [µM] | TGI (SW-620 colon) [µM] | TGI (SNB-19 CNS) [µM] | TGI (IGROV1 ovarian) [µM] | TGI (SK-OV-3 ovarian) [µM] | TGI (U251 CNS) [µM] | TGI (HOP-62 NSCLC) [µM] | TGI (MOLT-4 leukemia) [µM] | TGI (HL-60(TB) leukemia) [µM] | TGI (LOX IMVI melanoma) [µM] | TGI (CAKI-1 renal) [µM] | TGI (UACC-62 melanoma) [µM] | TGI (HCT-15 colon) [µM] | TGI (HS 578T breast) [µM] | TGI (BT-549 breast) [µM] | TGI (786-0 renal) [µM] |
| --- | --- | --- | --- | --- | --- | --- | --- | --- | --- | --- | --- | --- | --- | --- | --- | --- | --- | --- | --- | --- |
| O=C(Nc1sccc1S(=O)(=O)c1ccc(Cl)cc1)c1ccccc1 | > 100 | > 100 | > 100 | > 100 | > 100 | > 100 | > 100 | > 100 | > 100 | > 100 | > 100 | > 100 | > 100 | > 100 | > 100 | > 100 | > 100 | > 100 | > 100 | > 100 |
| CN(C)CCNC1=CC(=O)c2nc3ccccc3c3ccnc1c23 | 14.3 | 23.5 | 55.5 | 60.9 | 20 | 18 | 29.6 | 14.8 | 29.4 | 25.5 | 25.6 | 13.6 | 16.8 | 5.94 | 18.9 | 18.2 | 20.3 | 24.5 | 21.4 | 15.6 |
| C[C@]12CC[C@H]3[C@@H](CCC4=CC(=O)CC[C@@]43C)[C@@H]1CC[C@@H]2C(=O)Nc1ccc([N+](=O)[O-])c(C(F)(F)F)c1 | 27.8 | 37.4 | > 100 | 58.2 | 32.3 | 37.6 | 36.8 | 43.7 | 25.4 | 31.5 | 67.1 | 70.8 | > 100 | 30.5 | 35.9 | 31.9 | 25.7 | 38.4 | 35.6 | 31.2 |
| COc1cc([C@H]2CC(=O)C[C@@H](c3cc(OC)c(OC)c(OC)c3)C23C(=O)c2ccccc2C3=O)cc(OC)c1OC | > 100 | > 100 | > 100 | > 100 | > 100 | > 100 | > 100 | > 100 | > 100 | > 100 | > 100 | > 100 | > 100 | > 100 | > 100 | > 100 | > 100 | > 100 | > 100 | > 100 |
| CNC(=O)C1CCCN1C(=O)C(Cc1cnc[nH]1)NC(=O)C1CCC(=O)N1 (configuration not stated) | > 100 | > 100 | > 100 | > 100 | > 100 | > 100 | > 100 | > 100 | > 100 | > 100 | > 100 | > 100 | > 100 | > 100 | > 100 | > 100 | > 100 | > 100 | > 100 | > 100 |
| CC(=O)OC[C@@]1(C)[C@@H]2[C@@H]3[C@@]4(CO[C@]3(C)C(=O)[C@@]3(O)C[C@H](C)[C@H](OC(C)=O)[C@@H]3[C@H]4OC(C)=O)[C@H](OC(=O)c3ccccc3)C[C@@H]21 | > 100 | > 100 | > 100 | > 100 | > 100 | > 100 | > 100 | > 100 | > 100 | > 100 | > 100 | > 100 | > 100 | > 100 | > 100 | > 100 | > 100 | > 100 | > 100 | > 100 |
| COc1cc(C2S/C(=C/c3ccccc3)C(=O)N2c2cc(Cl)c(Cl)cc2Cl)cc(OC)c1OC (configuration not stated) | > 88.6 | > 100 | > 62.4 | > 74.6 | > 100 | > 100 | > 100 | > 100 | > 100 | > 100 | > 100 | > 72.4 | > 77.2 | > 79.3 | > 87.1 | > 100 | > 100 | > 57 | > 74.4 | > 100 |
| NCCCCN(CCCN)Cc1ccc2ccccc2c1 | > 100 | > 100 | > 100 | > 100 | > 100 | > 100 | 55 | > 100 | > 100 | > 100 | – | > 100 | > 100 | > 100 | 33 | > 100 | > 100 | 42.9 | > 100 | > 100 |
| COC(=O)C(Cc1c(C2Nc3ccccc3C2CC(NC(C)=O)C(=O)OC)[nH]c2ccccc12)NC(C)=O (configuration not stated) | > 100 | > 100 | > 100 | > 100 | > 100 | > 100 | > 100 | > 100 | > 100 | > 100 | > 100 | > 100 | > 100 | > 100 | > 100 | > 100 | > 100 | > 100 | > 100 | > 100 |
| C/C(=N/c1[nH]c(=O)cc2c1C(=O)CC2)N(C)C | > 200 | > 200 | > 200 | > 200 | > 200 | > 200 | > 200 | > 200 | > 200 | > 200 | > 200 | > 200 | > 200 | > 200 | > 200 | > 200 | > 200 | > 200 | > 200 | > 200 |
| COC(=O)C1(Cc2cccc(C)c2)Cc2c(C)cccc2C1=O (configuration not stated) | > 100 | > 100 | > 100 | > 100 | 41.3 | > 100 | > 100 | > 100 | > 100 | > 100 | > 100 | > 100 | > 100 | > 100 | > 100 | > 100 | > 100 | > 100 | > 100 | > 100 |
| CC1(C)CCCCCCC2CC2CCCCCC(C)(C)C1=O (configuration not stated) | > 100 | > 100 | 70.1 | > 100 | > 100 | > 100 | > 100 | > 100 | > 100 | > 100 | > 100 | > 100 | 32.7 | 63.6 | > 100 | > 100 | > 100 | > 100 | > 100 | > 100 |
| COc1ccc2oc(=O)c(-c3nc4ccccc4o3)cc2c1 | > 100 | > 100 | > 100 | > 100 | > 100 | > 100 | > 100 | > 100 | > 100 | > 100 | > 100 | > 100 | > 100 | > 100 | > 100 | > 100 | > 100 | > 100 | > 100 | > 100 |
| CC1=NN(C(=O)CC(=O)Nc2cccc(C)c2)C(=O)C1N=Nc1ccc(S(=O)(=O)c2ccc(N=NC3C(=O)N(C(=O)CC(=O)Nc4cccc(C)c4)N=C3C)cc2)cc1 (configuration not stated) | > 100 | > 100 | > 100 | > 100 | > 100 | > 100 | > 100 | > 100 | > 100 | > 100 | > 100 | > 100 | > 100 | > 100 | > 100 | > 100 | > 100 | > 100 | > 100 | > 100 |
| O=C1N=NC(=O)N1c1cc(C(F)(F)F)cc(C(F)(F)F)c1 | 33.2 | 44.3 | 22.1 | 8.25 | 33.2 | > 45.6 | > 40.8 | 14.8 | 16.2 | 12.4 | 15 | 40.3 | > 100 | 11.7 | 10.2 | 18.3 | 12 | 20.8 | 12.9 | 17 |
| Cc1ccc2c(c1)C(C1Cc3cccc(C)c3C1=O)OC2=O (configuration not stated) | > 100 | > 100 | 88.3 | > 100 | > 100 | > 100 | > 100 | > 100 | > 100 | > 100 | > 100 | > 100 | > 100 | > 100 | > 100 | > 100 | > 100 | > 100 | > 100 | > 100 |
| Clc1ccc(C2=C(c3ccccc3)C(c3ccc(Cl)cc3)N3C(=N[C@H]4CCCC[C@@H]43)N2)cc1 (some centres not stated) | 24.8 | 26.5 | 7.56 | 21.4 | 27.6 | 20.6 | 27.6 | 26.6 | 30.8 | 23.3 | – | 22.7 | 10.9 | 25.4 | 30.1 | 31.4 | 18.8 | 49.5 | 28.6 | 27.8 |
| C=C(C)[C@H]1C[C@@H]2O[C@@](O)(/C(C)=C\C(=O)/C=C(/C)C[C@H]3OC(=O)[C@@]24O[C@H]34)[C@@H]1O | > 100 | > 100 | > 100 | > 100 | > 100 | > 100 | > 100 | > 100 | > 100 | > 100 | – | > 100 | > 100 | > 100 | > 100 | > 100 | > 100 | > 100 | > 100 | > 100 |
